The values below are quoted from earlier work in patent US7078395B1, “Methods for treating or preventing cancer by preventing, inhibiting or arresting cell cycling” (priority 1999, dated 2006).

Series [1] deals with Meth A sarcoma. To be noted: 100 mg/kg, p.o., every other day, 12 day, CH3 mice (10); cited from earlier work.
The test system of series [2] is MCF-7 breast cancer cells. To be noted: reported by Seegers et al. (8); cited from earlier work.
In series [3] the test system is MDA-MB-435 breast cancer cells. Particulars: oral, 75 mg/kg/day for 29 days, SCID mice (11); cited from earlier work.
Series [4] relates to B16 melanoma. To be noted: 100 mg/kg, p.o., every other day, 12 day, CH3 mice (10); cited from earlier work.

As to `COc1cc2c(cc1O)CC[C@@H]1[C@@H]2CC[C@]2(C)[C@@H](O)CC[C@@H]12` [2-MeOE2, 2-methoxyoestradiol], the “reduction of tumour growth” value in series [1] is given as 57%; in series [4], 83%. Also, the “concentrations cytotoxic to MCF-7 breast cancer cells” value in series [2] is at least 1 μm. In series [3], the “reduction of tumour volumes compared with untreated controls” value was 60%. Also, the toxic side effects result in series [3] was “No toxic side effects were detected”.
